Where two headings read alike, the source gives them in different places. Values belong to the molecule of their own block, whether it stands above or below them. Residues, ends and D or L forms follow the SMILES beside them. No end group written: not given here.
Experiments:
[1] = molecular target: T1, human insulin receptor (HIR) (Homo sapiens, UniProt P06213); test: Insulin receptor binding, competition with 125I-labeled insulin (radio-receptor assay); details: for Kd: HIR binding affinity of synthetic peptides; for HIR binding affinity: comparison with monomers / homodimers
T1 construct: made in house

[2] = test system: free fat cells; test: Adipocyte / free fat cell (FFC) assay, 3H glucose incorporation into lipid; details: for FFC Pot.: agonist or antagonist / FFC Pot.: Table 8; for FFC Pot.: potency
[3] = molecular target: soluble human insulin mini-receptor (mIR) (Homo sapiens, UniProt P06213, DEL496-730); test: Fluorescence polarization competition with FITC-RP9, mIR; assay type: binding; details: target mIR, label FITC-RP9, FP
[4] = test system: MCF-7 cells; test: MCF-7 cell proliferation assay, antagonist format (50 nM IGF-1); details: proliferation assays in the presence of IGF-1 using MCF-7 and MiaPaCa cells; Table 23
[5] = molecular target: T2, IGF-1R (Homo sapiens, UniProt P08069); details: for binding ratio for IGF-1R over IR: TR-FRET at rhIGF-1R versus FP at sIR-Fc, summary of Table 22
[6] = molecular target: T3, soluble human insulin receptor-immunoglobulin heavy chain chimera (sIR-Fc) (Homo sapiens, UniProt P06213); test: Fluorescence polarization competition with FITC-RP9, sIR-Fc; assay type: binding; details: for Bndg Ratio IGF-1R/1R: higher values indicated higher affinity for IR than IGF-1R; for affinity / potency at IR: FP, FITC-RP9, summary of Table 22
T3 construct: replacing the transmembrane domain and the intracellular domain of IR with constant domains from immunoglobulin Fc or λ subunits; made in house; host or cells: human embryonic kidney 293 cells (as described for the Bass construct)

[7] = molecular target: T2, IGF-1R; test: TR-FRET, dissociation of biotinylated-20E2 from IGF-1R; assay type: binding; details: peptides 100 μM, IGF-1 30 μM
Method: Best fit non-linear regression analysis of the data, was used to determine dissociation rate constants. Each data point represents a single observation.
Reactions were allowed to reach equilibrium for 6 h at RT.

[8] = molecular target: insulin receptor construct transfected into 32D cells (Homo sapiens, UniProt P06213); test: IR autophosphorylation assay in IR transfected 32D cells (ELISA); details: MBP fusion peptides, FIG. 30
[9] = molecular target: T2, IGF-1R; test: Phage ELISA, binding of phage clones to IGF-1R (ratio over background); design: included the heterotetrameric (alpha 2-beta 2) extracellular domain of IGF-1R isolated from a mouse myeloma cell line; purchased R&D Systems 391-GR/CF; host or cells: mouse myeloma cell line; details: ratio of IGF-1R divided by ratio of IR
[10] = molecular target: T4, IR (Homo sapiens, UniProt P06213); test: Phage ELISA, binding of phage clones to IR (ratio over background); details: ratio of IR divided by ratio of IGF-1R
T4 construct: replacing the transmembrane domain and the intracellular domain of IR with constant domains from immunoglobulin Fc or λ subunits; made in house; host or cells: human embryonic kidney 293 cells (as described for the Bass construct)

[11] = molecular target: His-tagged soluble recombinant human IGF-1R (srhIGF-1R-his) (Homo sapiens, UniProt P08069); test: ALPHAScreen binding assay, competition with b-hIGF-1; details: Table 29
[12] = test system: FDC-P2 cells expressing the IL-3 and human IGF-1R receptors
[13] = test system: MCF-7 cells; test: MCF-7 cell proliferation assay, agonist format; assay type: cell-based, human
[14] = test system: FDC-P2 cells expressing the IL-3 and human IGF-1R receptors; test: IGF-1 proliferation assay in FDC-P2 cells, antagonist format
[15] = test system: MiaPaCa cells; test: MiaPaCa cell proliferation assay, agonist format; assay type: cell-based, human; details: serum-free conditions
[16] = molecular target: recombinant human insulin receptor (Homo sapiens, UniProt P06213); test: Substrate phosphorylation assay (HIR kinase); assay type: biochemical; details: for Kinase Pot. (nM): potency, Table 8
Method: Subsequently, a 2000-fold dilution of horseradish peroxidase (HRPO) conjugated phosphotyrosine antibody (Transduction Laboratories, Cat. No. E120H) in TBS was added. The plates were incubated for 30 min and washed 3 times with TBS. TMB (3,3′,5,5′-tetramethylbenzidine; Kem-En-Tec, Copenhagen, Denmark) was added. One substrate from Kem-En-Tec was added. After 10^−15 min, the reaction was stopped by the addition of 1% acetic acid. The absorbance, representing the extent of substrate phosphorylation, was measured in a spectrophotometer at a wavelength of 450 nm.

[17] = in the presence of a stimulating concentration of insulin
[18] = standard concentration of insulin

Kd [1]: 2800 nM
Molecule: CC[C@@H](C)[C@@H](NC(=O)[C@H](CCC(=O)O)NC(=O)[C@H](CC(=O)O)NC(=O)[C@H](Cc1ccccc1)NC(=O)[C@H](Cc1c[nH]c2ccccc12)NC(=O)[C@H](CCC(=O)O)NC(=O)[C@H](Cc1ccc(O)cc1)NC(=O)[C@H](Cc1ccccc1)NC(=O)[C@H](CCC(=O)O)NC(=O)[C@H](CCCCN)NC(=O)[C@H](CC(N)=O)NC(=O)[C@H](CC(N)=O)NC(=O)[C@@H](N)CCCCN)C(=O)NCC(=O)N[C@H](CCC(N)=O)C(=O)O [Peptide S320] (HELM PEPTIDE1{K.N.N.K.E.F.Y.E.W.F.D.E.[dI].G.[dQ]}$$$$V2.0; N-terminus and C-terminus assumed)

Hill [3]: −0.94
Molecule: CC(C)C[C@H](NC(=O)[C@H](CCC(N)=O)NC(=O)[C@H](CCCNC(=N)N)NC(=O)[C@H](CCC(=O)O)NC(=O)[C@H](Cc1ccccc1)NC(=O)[C@H](Cc1c[nH]c2ccccc12)NC(=O)[C@H](CC(=O)O)NC(=O)[C@H](Cc1ccc(O)cc1)NC(=O)[C@H](Cc1ccccc1)NC(=O)[C@H](CO)NC(=O)[C@@H](N)CCC(=O)O)C(=O)NCC(=O)O [Peptide S390]
activity in the FFC assay / at IR [2]: potency similar to full-length RP9 monomer peptides

Molecule: CC(C)C[C@@H]1NC(=O)[C@@H](NC(=O)[C@H](CO)NC(=O)[C@H](Cc2ccc(O)cc2)NC(=O)[C@H](Cc2ccccc2)NC(=O)[C@@H](N)CO)CSSC[C@@H](C(=O)N[C@@H](CCCNC(=N)N)C(=O)N[C@@H](CCCCN)C(=O)N[C@@H](CCCCN)C(=O)O)NC(=O)CNC(=O)[C@H](CC(=O)O)NC(=O)[C@H](Cc2c[nH]c3ccccc23)NC(=O)[C@H](CCC(N)=O)NC(=O)CNC(=O)[C@H](CCCNC(=N)N)NC(=O)[C@H](CO)NC(=O)[C@H](CCCCN)NC(=O)[C@H](CCC(=O)O)NC(=O)[C@H](C)NC(=O)[C@@H]2CCCN2C(=O)CNC(=O)[C@H](CC(N)=O)NC(=O)[C@H](C(C)C)NC(=O)[C@H](CC(C)C)NC(=O)[C@H](CO)NC(=O)[C@H](CCC(=O)O)NC1=O [RP33-IGF with KK]
Activ. [4]: Antag.

IC50 ([5]; read-out: TR-FRET rhIGF-1R IC50, vs. b-20E2, Table 22): 100 nM | Bndg Ratio IGF-1R/1R [6]: 1.9
Molecule: DYKDFYDAIDQLVRGSARAGGTRD [20E2(D118)]

binding ratio for IGF-1R over IR [5]: lower binding ratios for IGF-1R over IR | rate of dissociation of b-20E2 [7]: similar | Hill [3]: −0.89 | stimulation of autophosphorylation of IR [8]: stimulate autophosphorylation of IR | affinity / potency at IR [6]: slightly less potent
Molecule: FHENFYDWFVQRVSKK [Peptide H2C]

Comparisons IGF-1R/IR [9]: 3.8 | Comparisons IR/IGF-1R [10]: 0.3
Molecule: FYVQQYWGHENFYDWFDRQVSQSGGAG [H2CA-4-P1-IGFR]

IC50 [11]: 600 nM | affinity / potency at IR [6]: less potent
Molecule: GIISQSCPESFYDWFAGQVSDPWWCW [Peptide G33]
ED50, agonist activity at IGF-1R ([12]; FDC-P2 cells): ~10000 nM | agonist activity at IGF-1R ([12]; FDC-P2 cells): IGF-1R agonist activity | ED50 Growth ([12]; FDC-P2 cells, agonist format, Table 15): 500 nM | Max Action ([12]; FDC-P2 cells, Table 15): >50% | FDC-P2 Agonist ([12]; Table 30): + | IGF-1R agonist activity ([13]; MCF-7 and MiaPaCa cell proliferation (Tables 27-28)): IGF-1R agonist activity | antagonist activity at IGF-1R [14]: no antagonist activity

Molecule: GRVDWLQRNANFYDWFVAELG [Peptide S175]
EC50 [12]: 10000 nM | ED50, agonist activity at IGF-1R ([12]; FDC-P2 cells): > 10000 nM | agonist activity at IGF-1R ([12]; FDC-P2 cells): IGF-1R agonist activity | Hill [3]: −1.72

Kd [1]: 81 nM
Molecule: GSLDESFYDWFERQL [Peptide S395]

Kd [1]: 2000 nM
Molecule: HDPFYSMMKSLLK [Peptide S120]

Molecule: IGF-1: Insulin-like growth factor 1, from PeproTech; control
ED50, proliferation ([13]; MCF-7, serum-free conditions): 5 nM | ED50, proliferation [15]: 5 nM

Kinase Pot. (nM) [16]: Inactive
Molecule: MADYKDDDDKGSLDESFYDWFERQLGKKGGSGGSGGSGGSWLDQEWAWVQCEVYGRGCPSAAA(ETAG)PG [Peptide 538]
activity in the FFC assay / at IR [2]: specific insulin receptor antagonists | FFC Pot.: agonist or antagonist [2]: N | activity in the FFC assay [2, 17]: antagonists | FFC Pot. [2]: 10 nM | activity in the FFC assay [2, 18]: inactive | HIR binding affinity [1]: substantially higher (several orders of magnitude) affinity

Kinase Pot. (nM) [16]: Inactive
Molecule: MADYKDDDDKGSLDESFYDWFERQLGKKGGSGGSWLDQEWAWVQCEVYGRGCPSAAA(ETAG)PG [Peptide 537]
activity in the FFC assay / at IR [2]: specific insulin receptor antagonists | FFC Pot.: agonist or antagonist [2]: N | activity in the FFC assay [2, 17]: antagonists | FFC Pot. [2]: 10 nM | activity in the FFC assay [2, 18]: inactive | HIR binding affinity [1]: substantially higher (several orders of magnitude) affinity

activity in the HIR kinase assay [16]: more active
Molecule: MADYKDDDDKWLDQEWAWVQCEWGRGCPSGGSGGSGSLDESFYDWFERQLGKKAAA(ETAG)PG [Peptide 539]
activity in the FFC assay / at IR [2]: full agonist | FFC Pot. [2]: 10 nM | HIR binding affinity [1]: substantially higher (several orders of magnitude) affinity

Molecule: PPWGARFYDAIEQLVFDNL [RP4]
IC50 [5]: 8100 nM | binding ratio for IGF-1R over IR [5]: high binding ratios for IGF-1R over IR | affinity / potency at IR [6]: high affinities for IR | Bndg Ratio IGF-1R/1R [6]: 476 | IC50 ([6]; vs. FITC-RP9, Table 22, read-out: FP sIR-Fc IC50): 17 nM

Kd [1]: 1800 nM
Molecule: SLNFYDALQLLAKK [Peptide S119]

HIR binding affinity [1]: increased HIR binding affinity
Molecule: WFGYAWLS-NH2 (C-terminus assumed) [Peptide S317]
activity in the FFC assay / at IR [2]: increased potency in FFC assays | FEC ([2]; FFC assay potency, number of + grades agonist potency): 0
